# Where two headings read alike, the source gives them in different places.
# Assays:
# [1] = system: Plasmodium falciparum 3D7-A10 parasites; experiment: Stage specificity assay (8-h exposure of synchronized stages, IC50^8h); assay type: cell-based; conditions: for IC50: Plasmodium falciparum
# [2] = system: asynchronous 3D7-A10 parasite cultures; experiment: Standard 72-h exposure asexual blood stage susceptibility assay (IC50^72h); assay type: cell-based, Plasmodium falciparum; conditions: Plasmodium falciparum, 3D7, 72 h, read-out: Overall (72hr assay) Mean IC50 (IC50^72h)
# [3] = system: 3D7-MR4 trophozoite parasite-infected RBCs; experiment: Metabolomic profiling (hydrophilic metabolite changes, UHPLC-MS); assay type: cell-based, Plasmodium falciparum
compound,measurement,setting,value
CNc1nc(NCCCN(C)C)c2sc(-c3cccc(C(F)(F)F)c3)cc2n1 [MMV668311],Ratio lowest IC50 8hr/IC50 72hr,[1]; 3D7-A10,1.1
same,IC50,"[1]; 3D7, read-out: Early rings Mean IC50 (IC50^8h), 8-h exposure 0–8 hr, 3D7-A10, survival at 60 h",140 nM
same,IC50,"[1]; 3D7, read-out: Early trophozoites Mean IC50 (IC50^8h), 8-h exposure 16–24 hr, 3D7-A10, survival at 60 h",68.9 nM
same,IC50,"[1]; 3D7, read-out: Late rings Mean IC50 (IC50^8h), 8-h exposure 8–16 hr, 3D7-A10, survival at 60 h",97.7 nM
same,IC50,"[1]; 3D7, read-out: Late trophozoites Mean IC50 (IC50^8h), 8-h exposure 24–32 hr, 3D7-A10, survival at 60 h",122 nM
same,IC50,"[1]; 3D7, read-out: Schizonts Mean IC50 (IC50^8h), 8-h exposure 32–40 hr, 3D7-A10, survival at 60 h",382 nM
same,Stage of peak activity (Figure 6),[1]; period when the parasite was most susceptible (lowest IC50^8h),rings and trophozoites
same,IC50,[2],63.5 nM
same,changes within the set of metabolites detected (low fold change group),"[3]; 10 × IC50^72h, 2.5 hr, trophozoites",did not induce major changes
same,Log2(fold changes) 3-phosphoglycerate,"[3]; metabolite 3-phosphoglycerate, log2 fold change",0.1799
same,Log2(fold changes) 4-Pyridoxic acid,"[3]; metabolite 4-Pyridoxic acid, log2 fold change",0.0000
same,Log2(fold changes) 4-aminobutyrate,"[3]; metabolite 4-aminobutyrate, log2 fold change",0.0013
same,Log2(fold changes) 4-phosphopantetheine,"[3]; metabolite 4-phosphopantetheine, log2 fold change",0.0000
same,Log2(fold changes) 4-phosphopantothenate,"[3]; metabolite 4-phosphopantothenate, log2 fold change",0.0507
same,Log2(fold changes) 5-aminopentanoic acid,"[3]; metabolite 5-aminopentanoic acid, log2 fold change",0.0000
same,Log2(fold changes) 5-methyl-THF,"[3]; metabolite 5-methyl-THF, log2 fold change",0.0000
same,Log2(fold changes) 5-phosphoribosyl-1-pyrophosphate,"[3]; metabolite 5-phosphoribosyl-1-pyrophosphate, log2 fold change",-0.0449
same,Log2(fold changes) 6-phospho-D-gluconate,"[3]; metabolite 6-phospho-D-gluconate, log2 fold change",0.0744
same,Log2(fold change) HVDD,[3]; metabolite HVDD,0.6397
same,Log2(fold change) Hydroxyisocaproic acid,[3]; metabolite Hydroxyisocaproic acid,0.0000
same,Log2(fold change) IDP,[3]; metabolite IDP,0.0000
same,Log2(fold change) IMP,[3]; metabolite IMP,0.0136
same,Log2(fold change) Inositol,[3]; metabolite Inositol,0.0000
same,Log2(fold change) Isopentyl-PP,[3]; metabolite Isopentyl-PP,0.0000
same,Log2(fold change) L-arginino-succinate,[3]; metabolite L-arginino-succinate,0.0000
same,Log2(fold change) LD,[3]; metabolite LD,0.0000
same,Log2(fold change) Myristoyl/tetradecanoyl-CoA,[3]; metabolite Myristoyl/tetradecanoyl-CoA,0.0000
same,Log2(fold change) N-Acetyl-L-alanine,[3]; metabolite N-Acetyl-L-alanine,0.2894
same,Log2(fold change) N-acetyl-L-ornithine,[3]; metabolite N-acetyl-L-ornithine,0.9240
same,Log2(fold change) N-acetyl-glucosamine-1/6-phosphate,[3]; metabolite N-acetyl-glucosamine-1/6-phosphate,-0.0813
same,Log2(fold change) N-acetyl-glutamate,[3]; metabolite N-acetyl-glutamate,0.1520
same,Log2(fold change) N-acetyl-glutamine,[3]; metabolite N-acetyl-glutamine,0.0000
same,Log2(fold change) N-carbamoyl-L-aspartate,[3]; metabolite N-carbamoyl-L-aspartate,0.0640
same,Log2(fold change) NAD+,[3]; metabolite NAD+,0.0000
same,Log2(fold change) NADH,[3]; metabolite NADH,0.1408
same,Log2(fold change) NADP+,[3]; metabolite NADP+,-0.0507
same,Log2(fold change) NADPH,[3]; metabolite NADPH,0.0063
same,Log2(fold change) O-acetyl-L-serine,[3]; metabolite O-acetyl-L-serine,0.0000
same,Log2(fold change) Octoluse 8/1P,[3]; metabolite Octoluse 8/1P,0.0000
same,Log2(fold change) Octoluse Bisphosphate,[3]; metabolite Octoluse Bisphosphate,-0.0578
same,Log2(fold change) PD,[3]; metabolite PD,-0.3993
same,Log2(fold change) PE,[3]; metabolite PE,0.0346
same,Log2(fold change) PEE,[3]; metabolite PEE,0.4823
same,Log2(fold change) PEEK,[3]; metabolite PEEK,0.0000
same,Log2(fold change) PVNF,[3]; metabolite PVNF,0.0144
same,Log2(fold change) Pyroglutamic acid,[3]; metabolite Pyroglutamic acid,0.0000
same,Log2(fold change) Pyrophosphate,[3]; metabolite Pyrophosphate,0.0000
same,Log2(fold change) Ribose-5-phosphate,[3]; metabolite Ribose-5-phosphate,-0.1895
same,Log2(fold change) S-adenosyl-L-homocysteine,[3]; metabolite S-adenosyl-L-homocysteine,-0.2447
same,Log2(fold change) S-adenosyl-L-methioninamine,[3]; metabolite S-adenosyl-L-methioninamine,0.0000
same,Log2(fold change) S-adenosyl-L-methionine,[3]; metabolite S-adenosyl-L-methionine,0.0000
same,Log2(fold change) S-methyl-5'-thioadenosine,[3]; metabolite S-methyl-5'-thioadenosine,0.0000
same,Log2(fold change) SD,[3]; metabolite SD,0.2373
same,Log2(fold change) SDL,[3]; metabolite SDL,0.0000
same,Log2(fold change) SID,[3]; metabolite SID,0.1033
same,Log2(fold change) Sedoheptulose bisphosphate,[3]; metabolite Sedoheptulose bisphosphate,0.1946
same,Log2(fold change) Thiamine pyrophosphate,[3]; metabolite Thiamine pyrophosphate,0.0000
same,Log2(fold changes) UDP-D-glucose,"[3]; metabolite UDP-D-glucose, log2 fold change",0.0458
same,Log2(fold changes) UDP-D-glucuronate,"[3]; metabolite UDP-D-glucuronate, log2 fold change",-0.0320
same,Log2(fold changes) UDP-N-acetyl-glucosamine,"[3]; metabolite UDP-N-acetyl-glucosamine, log2 fold change",-0.0391
same,Log2(fold changes) UDP,"[3]; metabolite UDP, log2 fold change",-0.7320
same,Log2(fold changes) UMP,"[3]; metabolite UMP, log2 fold change",-0.3054
same,Log2(fold changes) UTP,"[3]; metabolite UTP, log2 fold change",0.0564
same,Log2(fold change) hydroxyphenylpyruvate,[3]; metabolite hydroxyphenylpyruvate,0.0000
same,Log2(fold change) hydroxyproline/Aminolevulinate,[3]; metabolite hydroxyproline/Aminolevulinate,0.0878
same,Log2(fold change) hypoxanthine,[3]; metabolite hypoxanthine,0.2077
same,Log2(fold change) indole,[3]; metabolite indole,0.0000
same,Log2(fold change) inosine,[3]; metabolite inosine,0.0666
same,Log2(fold change) isoleucine,[3]; metabolite isoleucine,0.1965
same,Log2(fold change) lactate,[3]; metabolite lactate,0.0645
same,Log2(fold change) leucine,[3]; metabolite leucine,0.2550
same,Log2(fold change) lysine,[3]; metabolite lysine,0.0000
same,Log2(fold change) malate,[3]; metabolite malate,0.0044
same,Log2(fold change) maleic acid,[3]; metabolite maleic acid,-0.0062
same,Log2(fold change) methionine,[3]; metabolite methionine,0.4374
same,Log2(fold change) myo-inositol,[3]; metabolite myo-inositol,0.0000
same,Log2(fold change) nicotinamide mononucleotide,[3]; metabolite nicotinamide mononucleotide,0.0000
same,Log2(fold change) nicotinate,[3]; metabolite nicotinate,0.1094
same,Log2(fold change) ornithine,[3]; metabolite ornithine,0.0000
same,Log2(fold change) orotate,[3]; metabolite orotate,-0.2365
same,Log2(fold change) orotidine-5'-phosphate,[3]; metabolite orotidine-5'-phosphate,-0.1452
same,Log2(fold change) oxaloacetate,[3]; metabolite oxaloacetate,0.0000
same,Log2(fold change) p-aminobenzoate,[3]; metabolite p-aminobenzoate,0.0000
same,Log2(fold change) p-hydroxybenzoate,[3]; metabolite p-hydroxybenzoate,0.0000
same,Log2(fold change) pantothenate,[3]; metabolite pantothenate,-0.0310
same,Log2(fold change) phenylalanine,[3]; metabolite phenylalanine,0.2649
same,Log2(fold change) phenylpyruvate,[3]; metabolite phenylpyruvate,0.0000
same,Log2(fold change) phosphoenolpyruvate,[3]; metabolite phosphoenolpyruvate,0.2026
same,Log2(fold change) prephenate,[3]; metabolite prephenate,0.0000
same,Log2(fold change) proline,[3]; metabolite proline,0.1500
same,Log2(fold change) pyridoxine,[3]; metabolite pyridoxine,0.2387
same,Log2(fold change) pyruvate,[3]; metabolite pyruvate,0.0542
same,Log2(fold change) riboflavin,[3]; metabolite riboflavin,0.0000
same,Log2(fold change) ribose,[3]; metabolite ribose,0.4509
same,Log2(fold change) ribose-phosphate,[3]; metabolite ribose-phosphate,-0.2314
same,Log2(fold change) ribulose-5-phosphate,[3]; metabolite ribulose-5-phosphate,-0.1585
same,Log2(fold change) serine,[3]; metabolite serine,0.1402
same,Log2(fold change) sn-glycerol-3-phosphate,[3]; metabolite sn-glycerol-3-phosphate,0.1282
same,Log2(fold change) succinate/Methylmalonic acid,[3]; metabolite succinate/Methylmalonic acid,0.1707
same,Log2(fold change) succinyl-CoA/methylmalonyl-CoA,[3]; metabolite succinyl-CoA/methylmalonyl-CoA,0.2947
same,Log2(fold change) taurine,[3]; metabolite taurine,0.0000
same,Log2(fold change) thiamine,[3]; metabolite thiamine,0.0000
same,Log2(fold change) threonine/homoserine,[3]; metabolite threonine/homoserine,0.3600
same,Log2(fold change) thymidine,[3]; metabolite thymidine,0.0000
same,Log2(fold changes) thymine,"[3]; metabolite thymine, log2 fold change",0.0000
same,Log2(fold changes) trehalose-6-Phosphate,"[3]; metabolite trehalose-6-Phosphate, log2 fold change",0.0000
same,Log2(fold changes) tryptophan,"[3]; metabolite tryptophan, log2 fold change",0.2172
same,Log2(fold changes) tyrosine,"[3]; metabolite tyrosine, log2 fold change",0.2350
same,Log2(fold changes) uridine,"[3]; metabolite uridine, log2 fold change",0.0000

# — paper PMC7031696 (Cell chemical biology, 2019)
